US8148391B2 (Cephalon, Inc., priority 2006, dated 2012)

Legend:
[1] = molecular target: T1, baculovirus-expressed ALK (Homo sapiens, UniProt Q9UM73); assay: ALK Kinase Assay (ELISA-type, time-resolved fluorescence); format: biochemical; details: 1 μM ATP (Km level); read-out: ALK Activity (ALK Kinase Inhibition, IC50)
T1 construct: host or cells: baculovirus expression system
Outline: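 Plates coated with phospholipase C-γ substrate (10 μg/mL in TBS); reaction started with 30 ng/ml ALK and run 15 min at 37° C. Phosphorylated substrate detected with Eu-N1-labeled PT66 antibody. IC50 from sigmoidal variable-slope fit of percent inhibition vs log concentration.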

[2] = molecular target: T2, c-Met (cytoplasmic domain) (Homo sapiens, UniProt P08581); assay: c-Met Kinase Assay (same methods as for ALK, with modifications); format: biochemical; details: 1 μM ATP (Km level); read-out: cMet Activity (c-Met Kinase Inhibition, IC50)
T2 construct: 10 ng/mL c-Met (cytoplasmic domain, Invitrogen Corporation #PV3143); purchased Invitrogen Corporation PV3143
T2 sequence (P08581 956-1390 limits assumed): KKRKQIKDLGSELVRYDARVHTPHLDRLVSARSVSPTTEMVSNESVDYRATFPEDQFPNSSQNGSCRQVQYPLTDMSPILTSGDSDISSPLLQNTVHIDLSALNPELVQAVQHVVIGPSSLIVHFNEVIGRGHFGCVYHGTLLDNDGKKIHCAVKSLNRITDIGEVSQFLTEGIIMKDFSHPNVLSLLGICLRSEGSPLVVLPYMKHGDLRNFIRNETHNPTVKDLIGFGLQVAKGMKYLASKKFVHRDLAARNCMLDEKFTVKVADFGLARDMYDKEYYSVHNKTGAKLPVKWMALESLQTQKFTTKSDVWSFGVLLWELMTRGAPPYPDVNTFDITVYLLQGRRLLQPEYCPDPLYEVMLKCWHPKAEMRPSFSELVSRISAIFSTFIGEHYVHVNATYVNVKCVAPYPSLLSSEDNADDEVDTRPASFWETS
Outline: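 Europium-labeled PT66 antibody (Eu-N1) detects substrate phosphorylation on wells coated with phospholipase C-γ at 10 μg/mL. The kinase, the cytoplasmic domain of c-Met at 10 ng/mL, starts the reaction, which proceeds 15 minutes at 37° C.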

T1 sequence (Q9UM73 19-1620): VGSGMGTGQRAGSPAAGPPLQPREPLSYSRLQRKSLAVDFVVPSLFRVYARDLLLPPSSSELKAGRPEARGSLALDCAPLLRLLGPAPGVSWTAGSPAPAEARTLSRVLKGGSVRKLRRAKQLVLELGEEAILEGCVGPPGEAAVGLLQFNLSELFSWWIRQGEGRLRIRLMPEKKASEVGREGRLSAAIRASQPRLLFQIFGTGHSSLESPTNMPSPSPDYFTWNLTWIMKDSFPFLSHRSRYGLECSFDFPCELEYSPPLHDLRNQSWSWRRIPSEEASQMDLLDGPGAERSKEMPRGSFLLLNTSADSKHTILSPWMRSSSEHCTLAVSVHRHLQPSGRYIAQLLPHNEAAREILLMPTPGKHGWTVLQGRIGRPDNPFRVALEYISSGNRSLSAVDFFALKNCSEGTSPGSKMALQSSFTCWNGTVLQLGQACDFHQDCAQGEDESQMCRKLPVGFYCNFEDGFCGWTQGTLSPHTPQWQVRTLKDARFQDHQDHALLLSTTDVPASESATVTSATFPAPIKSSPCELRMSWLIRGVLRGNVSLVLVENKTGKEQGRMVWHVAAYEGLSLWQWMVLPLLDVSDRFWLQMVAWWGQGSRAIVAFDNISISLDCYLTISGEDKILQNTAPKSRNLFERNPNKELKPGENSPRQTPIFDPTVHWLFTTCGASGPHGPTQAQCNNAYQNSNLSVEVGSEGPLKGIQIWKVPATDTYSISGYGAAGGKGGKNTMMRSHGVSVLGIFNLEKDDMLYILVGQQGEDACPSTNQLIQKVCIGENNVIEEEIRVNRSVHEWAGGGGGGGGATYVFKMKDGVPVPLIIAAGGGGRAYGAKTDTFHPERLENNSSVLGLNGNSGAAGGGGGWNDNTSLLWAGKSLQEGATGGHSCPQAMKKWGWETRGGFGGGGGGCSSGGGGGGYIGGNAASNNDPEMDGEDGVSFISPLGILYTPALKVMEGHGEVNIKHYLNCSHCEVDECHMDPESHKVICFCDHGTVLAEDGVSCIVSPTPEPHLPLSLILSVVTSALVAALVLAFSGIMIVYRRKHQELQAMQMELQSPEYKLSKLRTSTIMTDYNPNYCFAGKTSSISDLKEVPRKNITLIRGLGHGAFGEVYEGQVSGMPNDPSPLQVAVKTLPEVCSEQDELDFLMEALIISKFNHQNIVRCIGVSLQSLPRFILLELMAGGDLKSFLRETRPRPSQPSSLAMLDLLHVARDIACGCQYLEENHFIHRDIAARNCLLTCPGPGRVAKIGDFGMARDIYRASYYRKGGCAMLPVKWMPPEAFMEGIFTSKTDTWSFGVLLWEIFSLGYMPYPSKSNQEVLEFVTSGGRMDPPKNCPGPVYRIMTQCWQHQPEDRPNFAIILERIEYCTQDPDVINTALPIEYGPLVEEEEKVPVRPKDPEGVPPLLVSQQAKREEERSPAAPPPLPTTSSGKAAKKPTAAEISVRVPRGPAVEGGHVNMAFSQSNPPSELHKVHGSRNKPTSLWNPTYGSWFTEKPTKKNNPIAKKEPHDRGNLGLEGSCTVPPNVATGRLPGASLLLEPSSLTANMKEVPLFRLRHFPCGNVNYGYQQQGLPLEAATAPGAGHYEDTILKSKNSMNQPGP

| SMILES | IC50 [1] [µM] | IC50 [2] [µM] |
| --- | --- | --- |
| COc1ccc(Nc2nc(Nc3cc4c(cc3OC)CN(CC3CC3)CC(=O)N4C)ncc2Cl)c(-n2cccn2)c1 [Example 748, 8-[5-Chloro-4-(4-methoxy-2-pyrazol-1-yl-phenylamino)-pyrimidin-2-ylamino]-cyclopropylmethyl-7-methoxy-1-methyl-1,3,4,5-tetrahydro-benzo[e][1,4]diazepin-2-one] | < 0.1 | > 10 |
| CCN1CC(=O)N(C)c2cc(Nc3ncc(Cl)c(Nc4ccc(OC)c(CNCCO)c4)n3)c(OC)cc2C1 [Example 749, 8-(5-Chloro-4-{3-[(2-hydroxy-ethylamino)-methyl]-4-methoxy-phenylamino}-pyrimidin-2-ylamino)-4-ethyl-7-methoxy-1-methyl-1,3,4,5-tetrahydro-benzo[e][1,4]diazepin-2-one] | 0.1 to 1 | > 10 |
| COCCNC1CCc2cc(Nc3ncc(Cl)c(Nc4c(OC)ccc5c4CN(S(C)(=O)=O)CC(=O)N5)n3)c(OC)cc2CC1 (centres unmarked) [Example 750, 6-{5-Chloro-2-[3-methoxy-7-(2-methoxy-ethylamino)-6,7,8,9-tetrahydro-5H-benzocyclohepten-2-ylamino]-pyrimidin-4-ylamino}-4-methanesulfonyl-7-methoxy-1,3,4,5-tetrahydro-benzo[e][1,4]diazepin-2-one] | 1 to 10 | > 10 |
| COc1cc2c(cc1Nc1ncc(Cl)c(Nc3c(OC)ccc4c3CN(S(C)(=O)=O)CC(=O)N4)n1)CCN(CC(=O)N(C)C)CC2 [Example 751, 2-{7-[5-Chloro-4-(4-methanesulfonyl-7-methoxy-2-oxo-2,3,4,5-tetrahydro-1H-benzo[e][1,4]diazepin-6-ylamino)-pyrimidin-2-ylamino]-8-methoxy-1,2,4,5-tetrahydro-benzo[d]azepin-3-yl}-N,Ndimethyl-acetamide] | 1 to 10 | > 10 |
| COc1cc2c(cc1Nc1ncc(Cl)c(N[C@@H]3CCCC[C@H]3NS(C)(=O)=O)n1)CCN(CC(F)F)CC2 [Example 762, N-((1R,2R)-2-{5-Chloro-2-[3-(2,2-difluoro-ethyl)-8-methoxy-2,3,4,5-tetrahydro-1H-benzo[d]azepin-7-ylamino]-pyrimidin-4-ylamino}-cyclohexyl)-methanesulfonamide] | < 0.1 | > 10 |
| COc1cc2c(cc1Nc1ncc(Cl)c(Nc3ccc(N4CCN(C)CC4)cc3OC)n1)CCN(CC(F)F)CC2 [Example 764, 5-Chloro-N*2*-[3-(2,2-difluoro-ethyl)-8-methoxy-2,3,4,5-tetrahydro-1H-benzo[d]azepin-7-yl]-N*4*-[2-methoxy-4-(4-methyl-piperazin-1-yl)-phenyl]-pyrimidine-2,4-diamine] | < 0.1 | > 10 |
| COc1cc2c(cc1Nc1ncc(Cl)c(Nc3ccc(N4CCN(C)CC4)c(C)c3)n1)CCN(CC(F)F)CC2 [Example 765, 5-Chloro-N*2*-[3-(2,2-difluoro-ethyl)-8-methoxy-2,3,4,5-tetrahydro-1H-benzo[d]azepin-7-yl]-N*4*-[3-methyl-4-(4-methyl-piperazin-1-yl)-phenyl]-pyrimidine-2,4-diamine] | < 0.1 | > 10 |
| CNC(=O)c1ccccc1Nc1nc(Nc2cc3c(cc2OC)CCN(CC(F)F)CC3)ncc1Cl [Example 766, 2-{5-Chloro-2-[3-(2,2-difluoro-ethyl)-8-methoxy-2,3,4,5-tetrahydro-1H-benzo[d]azepin-7-ylamino]-pyrimidin-4-ylamino}-N-methyl-benzamide] | < 0.1 | 1 to 10 |
| CCNC(=O)c1ccccc1Nc1nc(Nc2cc3c(cc2OC)CCN(CC(F)F)CC3)ncc1Cl [Example 767, 2-{5-Chloro-2-[3-(2,2-difluoro-ethyl)-8-methoxy-2,3,4,5-tetrahydro-1H-benzo[d]azepin-7-ylamino]-pyrimidin-4-ylamino}-N-ethyl-benzamide] | < 0.1 | > 10 |
| COc1cc2c(cc1Nc1ncc(Cl)c(Nc3cc(Cl)ccc3OC)n1)CCN(CC(F)F)CC2 [Example 768, 5-Chloro-N*4*-(5-chloro-2-methoxy-phenyl)-N*2*-[3-(2,2-difluoro-ethyl)-8-methoxy-2,3,4,5-tetrahydro-1H-benzo[d]azepin-7-yl]-pyrimidine-2,4-diamine] | 0.1 to 1 | > 10 |
| COc1cc2c(cc1Nc1ncc(F)c(NC3C4C=CC(C4)C3C(N)=O)n1)CCN(CC(F)F)CC2 (stereo not drawn) [Example 769, (2-exo,3-exo)-3-{2-[3-(2,2-Difluoro-ethyl)-8-methoxy-2,3,4,5-tetrahydro-1H-benzo[d]azepin-7-ylamino]-5-fluoro-pyrimidin-4-ylamino}-bicyclo[2.2.1]hept-5-ene-2-carboxylic acid amide] | 0.1 to 1 | > 10 |
| COc1cc2c(cc1Nc1ncc(Cl)c(Nc3ccc(N4CCN(C)CC4)cc3OC)n1)CCN(CC(=O)N(C)C)CC2 [Example 770, 2-(7-{5-Chloro-4-[2-methoxy-4-(4-methyl-piperazin-1-yl)-phenylamino]-pyrimidin-2-ylamino}-8-methoxy-1,2,4,5-tetrahydro-benzo[d]azepin-3-yl)-N,N-dimethyl-acetamide] | < 0.1 | > 10 |
| COc1cc2c(cc1Nc1ncc(Cl)c(Nc3ccc(N4CCN(C)CC4)cc3OC)n1)CCN(CCS(C)(=O)=O)CC2 [Example 771, 5-Chloro-N*2*-[3-(2-methanesulfonyl-ethyl)-8-methoxy-2,3,4,5-tetrahydro-1H-benzo[d]azepin-7-yl]-N*4*-[2-methoxy-4-(4-methyl-piperazin-1-yl)-phenyl]-pyrimidine-2,4-diamine] | < 0.1 | > 10 |
| CCN1CCc2cc(Nc3ncc(Cl)c(Nc4ccc(N5CCN(C)CC5)cc4OC)n3)c(OC)cc2CC1=O [Example 772, 7-{5-Chloro-4-[2-methoxy-4-(4-methyl-piperazin-1-yl)-phenylamino]-pyrimidin-2-ylamino}-3-ethyl-8-methoxy-1,3,4,5-tetrahydro-benzo[d]azepin-2-one] | < 0.1 | > 10 |
| CCN1CCc2cc(Nc3ncc(Cl)c(N[C@H]4[C@@H](C(N)=O)[C@@H]5C=C[C@H]4C5)n3)c(OC)cc2CC1 [Example 773, (1S,2S,3R,4R)-3-[5-Chloro-2-(3-ethyl-8-methoxy-2,3,4,5-tetrahydro-1H-benzo[d]azepin-7-ylamino)-pyrimidin-4-ylamino]-bicyclo[2.2.1]hept-5-ene-2-carboxylic acid amide] | < 0.1 | > 10 |
| CCCN1CCc2cc(Nc3ncc(Cl)c(N[C@H]4[C@@H](C(N)=O)[C@@H]5C=C[C@H]4C5)n3)c(OC)cc2CC1 [Example 774, (1S,2S,3R,4R)-3-[5-Chloro-2-(8-methoxy-3-propyl-2,3,4,5-tetrahydro-1H-benzo[d]azepin-7-ylamino)-pyrimidin-4-ylamino]-bicyclo[2.2.1]hept-5-ene-2-carboxylic acid amide] | < 0.1 | > 10 |
| COc1cc2c(cc1Nc1ncc(Cl)c(N[C@H]3[C@@H](C(N)=O)[C@@H]4C=C[C@H]3C4)n1)CCN(CC1CC1)CC2 [Example 775, (1S,2S,3R,4R)-3-[5-Chloro-2-(3-cyclopropylmethyl-8-methoxy-2,3,4,5-tetrahydro-1H-benzo[d]azepin-7-ylamino)-pyrimidin-4-ylamino]-bicyclo[2.2.1]hept-5-ene-2-carboxylic acid amide] | < 0.1 | > 10 |
| COc1cc2c(cc1Nc1ncc(Cl)c(N[C@H]3[C@@H](C(N)=O)[C@@H]4C=C[C@H]3C4)n1)CCN(C(C)C)CC2 [Example 776, (1S,2S,3R,4R)-3-[5-Chloro-2-(3-isopropyl-8-methoxy-2,3,4,5-tetrahydro-1H-benzo[d]azepin-7-ylamino)-pyrimidin-4-ylamino]-bicyclo[2.2.1]hept-5-ene-2-carboxylic acid amide] | < 0.1 | > 10 |
| CCNC(=O)c1cccc(F)c1Nc1nc(Nc2cc3c(cc2OC)CCN(CC(F)F)CC3)ncc1Cl [Example 777, 2-{5-Chloro-2-[3-(2,2-difluoro-ethyl)-8-methoxy-2,3,4,5-tetrahydro-1H-benzo[d]azepin-7-ylamino]-pyrimidin-4-ylamino}-N-ethyl-3-fluoro-benzamide] | < 0.1 | 1 to 10 |
| COc1cc2c(cc1Nc1ncc(Cl)c(Nc3ccc(N4CCN(C)CC4)cc3OC)n1)CCNC(=O)C2 [Example 778, 7-{5-Chloro-4-[2-methoxy-4-(4-methyl-piperazin-1-yl)-phenylamino]-pyrimidin-2-ylamino}-8-methoxy-1,3,4,5-tetrahydro-benzo[d]azepin-2-one] | < 0.1 | > 10 |
| COc1cc2c(cc1Nc1ncc(Cl)c(Nc3ccc(N4CCN(C)CC4)c(C)c3)n1)CCN(CC(C)(F)F)CC2 [Example 779, 5-Chloro-N*2*-[3-(2,2-difluoro-propyl)-8-methoxy-2,3,4,5-tetrahydro-1H-benzo[d]azepin-7-yl]-N*4*-[3-methyl-4-(4-methyl-piperazin-1-yl)-phenyl]-pyrimidine-2,4-diamine] | < 0.1 | > 10 |
| COc1cc2c(cc1Nc1ncc(Cl)c(Nc3ccc(N4CCOCC4)cc3OC)n1)CCN(CC(C)(F)F)CC2 [Example 780, 5-Chloro-N*2*-[3-(2,2-difluoro-propyl)-8-methoxy-2,3,4,5-tetrahydro-1H-benzo[d]azepin-7-yl]-N*4*-(2-methoxy-4-morpholin-4-yl-phenyl)-pyrimidine-2,4-diamine] | 0.1 to 1 | > 10 |
